The data set is described as follows: Vacuum-assisted trans-epithelial delivery of riboflavin into rabbit corneas, compared with standard delivery after epithelium removal. The format is in vivo. As to conditions: trans-epithelial vacuum delivery through intact epithelium, varying application time periods; compared with standard method in which the epithelium is surgically removed. The protocol: The device and method herein were tested to verify the effectiveness of the vacuum delivery system and to quantify concentrations of the standard formulation of riboflavin that is used in the process of cross-linking collagen corneal tissue in rabbit corneas. The tests employed the present invention to facilitate trans-epithelial delivery of riboflavin at varying application time periods, and compare the concentrations achieved with the concentration of riboflavin achieved through the standard method of riboflavin delivery (i.e., in which the epithelium is surgically removed). […] In other embodiments, high levels of vacuum, higher riboflavin concentrations, and the use of penetration enhancers may be used to increase the amount of riboflavin diffusion into the cornea per unit time. These animal studies clearly provide a proof of principle for the efficacious delivery of riboflavin into the cornea, through an intact epithelium, using the device and method of this invention. These studies also provide critical concentration/treatment time data for utilizing this invention.

Data on one compound can be found in US11351347B2, “Vacuum-assisted drug delivery device and method” (VacuMed, LLC., priority 2014, dated 2022).

Consider `Cc1cc2nc3c(=O)[nH]c(=O)nc-3n(C[C@H](O)[C@H](O)[C@H](O)CO)c2cc1C` [riboflavin], for which the “riboflavin delivery to the cornea (concentration achieved)” value is “equivalent to the effect of removing the corneal epithelium”.
